Results as given in patent publication US9169254B2, “Spiroimidazolone derivative” (Chugai Seiyaku Kabushiki Kaisha, priority 2009, dated 2015).

target: T1, human PTH1 receptor (Homo sapiens, UniProt Q03431); test: In vitro cAMP signal activity in HKRK-B7 cells (LLC-PK1 cells overexpressing the human PTH1 receptor); assay type: cell-based; conditions: HKRK-B7 cells; compound at 1×10^−3 M; cAMP produced as percentage of that produced by hPTH(1-34) at 100 nM
T1 sequence (Q03431 27-593): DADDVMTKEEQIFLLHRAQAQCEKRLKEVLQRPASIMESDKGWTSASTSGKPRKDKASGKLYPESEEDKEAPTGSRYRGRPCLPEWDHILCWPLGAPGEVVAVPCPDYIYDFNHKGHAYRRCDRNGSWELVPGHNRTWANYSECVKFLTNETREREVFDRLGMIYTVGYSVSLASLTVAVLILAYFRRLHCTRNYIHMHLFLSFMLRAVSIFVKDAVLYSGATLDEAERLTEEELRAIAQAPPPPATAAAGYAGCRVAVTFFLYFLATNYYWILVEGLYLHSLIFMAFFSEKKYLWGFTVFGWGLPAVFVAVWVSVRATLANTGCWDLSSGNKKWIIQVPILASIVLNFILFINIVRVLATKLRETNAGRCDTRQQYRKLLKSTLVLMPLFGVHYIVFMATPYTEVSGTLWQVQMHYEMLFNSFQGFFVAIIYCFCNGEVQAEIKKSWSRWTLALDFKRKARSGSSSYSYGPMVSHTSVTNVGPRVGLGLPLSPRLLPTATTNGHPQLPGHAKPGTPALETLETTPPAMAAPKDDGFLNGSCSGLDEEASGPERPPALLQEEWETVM

Structure (SMILES) | cAMP production activity (%)
Cc1cc(N(CCO)C(=O)N(C)CCO)cc(C)c1/C=C/S(=O)(=O)N1CCC2(CC1)N=C(c1cccc(OC(F)(F)F)c1)NC2=O [Compound 533, 1-(3,5-dimethyl-4-{(E)-2-[4-oxo-2-(3-trifluoromethoxy-phenyl)-1,3,8-triaza-spiro[4.5]dec-1-ene-8-sulfonyl]-vinyl}-phenyl)-1,3-bis-(2-hydroxy-ethyl)-3-methyl-urea] | 69
O=C1NC(c2ccc(Cl)cc2Cl)=NC12CCN(S(=O)(=O)c1ccc(Cl)cc1)CC2 [Compound 44, 8-(4-Chloro-benzenesulfonyl)-2-(2,4-dichloro-phenyl)-1,3,8-triaza-spiro[4.5]dec-1-en-4-one] | 25
C/C=C/C1=NC2(CCN(S(=O)(=O)CCc3ccc(C(=O)N(C)C)cc3C)CC2)C(=O)N1 [Compound 141, 3,N,N-trimethyl-4-{2-[4-oxo-2-((E)-propenyl)-1,3,8-triaza-spiro[4.5]dec-1-ene-8-sulfonyl]-ethyl}-benzamide] | 32
O=C1NC(c2ccc(Cl)cc2Cl)=NC12CCN(S(=O)(=O)c1ccccc1C(F)(F)F)CC2 [Compound 45, 2-(2,4-dichloro-phenyl)-8-(2-trifluoromethyl-benzenesulfonyl)-1,3,8-triaza-spiro[4.5]dec-1-en-4-one] | 22
O=C1NC(C2CCCCC2)=NC12CCN(S(=O)(=O)c1ccc(Br)s1)CC2 [Compound 65, 8-(5-bromo-thiophene-2-sulfonyl)-2-cyclohexyl-1,3,8-triaza-spiro[4.5]dec-1-en-4-one] | 65
CCc1cc(NC(C)=O)ccc1/C=C/S(=O)(=O)N1CCC2(CC1)N=C(C1CCC(C)CC1)NC2=O (stereo not shown) [Compound 510, N-(3-ethyl-4-{(E)-2-[2-(4-methyl-cyclohexyl)-4-oxo-1,3,8-triaza-spiro[4.5]dec-1-ene-8-sulfonyl]-vinyl}-phenyl)-acetamide] | 57
Cc1ccc(C(=O)N2CCN(C)CC2)cc1CCS(=O)(=O)N1CCC2(CC1)N=C(c1cccc(OC(F)(F)F)c1)NC2=O [Compound 414, 8-{2-[2-methyl-5-(4-methyl-piperazine-1-carbonyl)-phenyl]-ethanesulfonyl}-2-(3-trifluoromethoxy-phenyl)-1,3,8-triaza-spiro[4.5]dec-1-en-4-one] | 69
O=C1NC(c2cccc(C(F)(F)F)c2)=NC12CCN(S(=O)(=O)c1ccc(Br)s1)CC2 [Compound 69, 8-(5-bromo-thiophene-2-sulfonyl)-2-(3-trifluoromethyl-phenyl)-1,3,8-triaza-spiro[4.5]dec-1-en-4-one] | 61
Cc1cc(C(=O)N2CC[C@@H](N(C)C)C2)cc(C)c1/C=C/S(=O)(=O)N1CCC2(CC1)N=C(c1cccc(OC(F)(F)F)c1)NC2=O [Compound 399, 8-{(E)-2-[4-((R)-3-dimethylamino-pyrrolidine-1-carbonyl)-2,6-dimethyl-phenyl]-ethenesulfonyl}-2-(3-trifluoromethoxy-phenyl)-1,3,8-triaza-spiro[4.5]dec-1-en-4-one] | 64
CC(=O)N(CCOCCO)c1ccc(/C=C/S(=O)(=O)N2CCC3(CC2)N=C(C2CCC(CCC(F)(F)F)CC2)NC3=O)c(C)c1 (stereo not shown) [Compound 544, N-[2-(2-hydroxy-ethoxy)-ethyl]-N-[3-methyl-4-((E)-2-{4-oxo-2-[4-(3,3,3-trifluoro-propyl)-cyclohexyl]-1,3,8-triaza-spiro[4.5]dec-1-ene-8-sulfonyl}-vinyl)-phenyl]-acetamide] | 80
O=C1NC(C2CCCCC2)=NC12CCN(S(=O)(=O)/C=C/c1ccc3c(ccn3CCOCCO)c1)CC2 [Compound 487, 2-cyclohexyl-8-((E)-2-{1-[2-(2-hydroxy-ethoxy)-ethyl]-1H-indol-5-yl}-ethenesulfonyl)-1,3,8-triaza-spiro[4.5]dec-1-en-4-one] | 49
CC(=O)N(CCOCCF)c1cc(C)c(/C=C/S(=O)(=O)N2CCC3(CC2)N=C(C2CCC(CCC(F)(F)F)CC2)NC3=O)c(C)c1 (stereo not shown) [Compound 551, N-[3,5-dimethyl-4-((E)-2-{4-oxo-2-[4-(3,3,3-trifluoro-propyl)-cyclohexyl]-1,3,8-triaza-spiro[4.5]dec-1-ene-8-sulfonyl}-vinyl)-phenyl]-N-[2-(2-fluoro-ethoxy)-ethyl]-acetamide] | 92
CC1CCCC(C2=NC3(CCN(S(=O)(=O)c4cccc(Cl)c4)CC3)C(=O)N2)C1 (stereo not shown) [Compound 19, 8-(3-chloro-benzenesulfonyl)-2-(3-methyl-cyclohexyl)-1,3,8-triaza-spiro[4.5]dec-1-en-4-one] | 35
Cc1cc(CN2C(=O)CCC2=O)cc(C)c1/C=C/S(=O)(=O)N1CCC2(CC1)N=C(C1CCC(C)CC1)NC2=O (stereo not shown) [Compound 521, 1-(3,5-dimethyl-4-{(E)-2-[2-(4-methyl-cyclohexyl)-4-oxo-1,3,8-triaza-spiro[4.5]dec-1-ene-8-sulfonyl]-vinyl}-benzyl)-pyrrolidine-2,5-dione] | 55
Cc1cc(N2C[C@H](O)CC2=O)ccc1/C=C/S(=O)(=O)N1CCC2(CC1)N=C(c1cccc(C(F)(F)F)c1)NC2=O [Compound 220, 8-{(E)-2-[4-((R)-4-hydroxy-2-oxo-pyrrolidin-1-yl)-2-methyl-phenyl]-ethenesulfonyl}-2-(3-trifluoromethyl-phenyl)-1,3,8-triaza-spiro[4.5]dec-1-en-4-one] | 80
Cc1cc(CO)cc(C)c1/C=C/S(=O)(=O)N1CCC2(CC1)N=C(C1CCC(CCC(F)(F)F)CC1)NC2=O (stereo not shown) [Compound 553, 8-[(E)-2-(4-hydroxymethyl-2,6-dimethyl-phenyl)-ethenesulfonyl]-2-[4-(3,3,3-trifluoro-propyl)-cyclohexyl]-1,3,8-triaza-spiro[4.5]dec-1-en-4-one] | 80

Continued, values first:

cAMP production activity (%) | Structure (SMILES)
115 | Cc1cc(C(=O)N2CCC(O)(CF)CC2)cc(C)c1/C=C/S(=O)(=O)N1CCC2(CC1)N=C(c1ccc(S(F)(F)(F)(F)F)cc1)NC2=O [Compound 1245, 8-{(E)-2-[4-(4-fluoromethyl-4-hydroxy-piperidine-1-carbonyl)-2,6-dimethyl-phenyl]-ethenesulfonyl}-2-(4-pentafluorosulfanyl-phenyl)-1,3,8-triaza-spiro[4.5]dec-1-en-4-one]
92 | [2H]C([2H])([2H])C1([2H])CCC(C2=NC3(CCN([S@TB18](=O)(=O)/C=C/c4c(C)cc(N(C)C(N)=O)cc4C)CC3)C(=O)N2)CC1 (stereo not shown) [Compound 1110, 1-(3,5-dimethyl-4-{(E)-2-[2-(4-[1,1,1-^2H3]methyl-[4-^2H1]cyclohexyl)-4-oxo-1,3,8-triaza-spiro[4.5]dec-1-ene-8-sulfonyl]-vinyl}-phenyl)-1-methyl-urea]
77 | Cc1cc(C(=O)N2CCC(C)(O)CC2)cc(C)c1/C=C/S(=O)(=O)N1CCC2(CC1)N=C(c1ccc(OCC(F)(F)C(F)F)c(C(F)(F)F)c1)NC2=O [Compound 1199, 8-{(E)-2-[4-(4-hydroxy-4-methyl-piperidine-1-carbonyl)-2,6-dimethyl-phenyl]-ethenesulfonyl}-2-[4-(2,2,3,3-tetrafluoro-propoxy)-3-trifluoromethyl-phenyl]-1,3,8-triaza-spiro[4.5]dec-1-en-4-one]
61 | Cc1cc(C(=O)N2CCCC2)ccc1/C=C/S(=O)(=O)N1CCC2(CC1)N=C(c1ccc(F)c(C(F)(F)F)c1)NC2=O [Compound 619, 2-(4-Fluoro-3-trifluoromethyl-phenyl)-8-{(E)-2-[2-methyl-4-(pyrrolidine-1-carbonyl)-phenyl]-ethenesulfonyl}-1,3,8-triaza-spiro[4.5]dec-1-en-4-one]
49 | Cc1cc2ccc1CCS(=O)(=O)N1CCC3(CC1)N=C(NC3=O)c1cc(cc(C(F)(F)F)c1)OCC/C=C\CCCCCCN(C)C2=O [Compound 1417]
114 | CCCCCC#CCCC1=NC2(CCN(S(=O)(=O)/C=C/c3c(C)cc(N(C)C(N)=O)cc3C)CC2)C(=O)N1 [Compound 1025, 1-{3,5-dimethyl-4-[(E)-2-(2-non-3-ynyl-4-oxo-1,3,8-triaza-spiro[4.5]dec-1-ene-8-sulfonyl)-vinyl]-phenyl}-1-methyl-urea]
61 | Cc1cc(C(=O)N(C)C)ccc1CCS(=O)(=O)N1CCC2(CC1)N=C(C1CCC(F)(F)CC1)NC2=O [Compound 890, 4-{2-[2-(4,4-Difluoro-cyclohexyl)-4-oxo-1,3,8-triaza-spiro[4.5]dec-1-ene-8-sulfonyl]-ethyl}-3,N,N-trimethyl-benzamide]
84 | Cc1cc(N(C)C(N)=O)cc(C)c1CCS(=O)(=O)N1CCC2(CC1)N=C(C1CCC(C)CC1)N/C2=N/O (stereo not shown) [Compound 1371, 1-(4-{2-[4-[(E)-Hydroxyimino]-2-(4-methyl-cyclohexyl)-1,3,8-triaza-spiro[4.5]dec-1-ene-8-sulfonyl]-ethyl}-3,5-dimethyl-phenyl)-1-methyl-urea]
64 | Cc1cc(C(=O)N2CCC(C)(O)CC2)cc(C)c1/C=C/S(=O)(=O)N1CCC2(CC1)N=C(c1ccc(Cl)c(OCC(F)(F)C(F)(F)F)c1)NC2=O [Compound 1230, 2-[4-chloro-3-(2,2,3,3,3-pentafluoro-propoxy)-phenyl]-8-{(E)-2-[4-(4-hydroxy-4-methyl-piperidine-1-carbonyl)-2,6-dimethyl-phenyl]-ethenesulfonyl}-1,3,8-triaza-spiro[4.5]dec-1-en-4-one]
